In patent US12678386B2, “Organic compounds as TRPM8 activators” (Givaudan SA, priority 2021, dated 2026):

Biological target: T1, hTRPM8 (Homo sapiens, UniProt Q7Z2W7)
T1 construct: expressed in transfected cells
Assay: Assay on TRPM8 modulators: calcium imaging (Fluo-4, Flexstation) in HEK293 cell line stably expressing hTRPM8
Type: cell-based
Settings: HEK293 cells stably expressing hTRPM8; calcium influx, sigmoidal dose-response fit
Method: A HEK293 cell line stably expressing hTRPM8 was generated according to Klein et al., (Chem. Senses 36: 649-658, 2011) and receptor activation was monitored by calcium imaging in a Flexstation. For Ca-imaging assays of TRPM8 channel activation, cells were seeded on day 0 at a density of 12000 cells per well in Dulbecco's modified Eagle medium (DMEM) containing 9% foetal bovine serum in black, clear bottom 96-well plates that had been coated with 0.001% polyethyleneimine (molecular weight=60 000, Acros Organics). On day 2, agonists were evaluated via calcium imaging using Fluo-4. Briefly, growth medium was discarded, and the cells were incubated in the dark for 1 h at 37° C. in 50 μL loading buffer consisting of 2.7 μM Fluo-4 AM (Invitrogen) and […] probenecid (Sigma-Aldrich) in DMEM (without serum). After incubation, the plates were washed five times with 100 μL of assay buffer (in mM: 130 NaCl, 5 KCl, 10 HEPES, 2 CaCl2, and 10 glucose, pH7.4.) and further incubated in the dark at room temperature for 30 min. The cells were then washed five times with 100 μL assay buffer and then calcium influx to serial dilutions of inventive compounds were measured in a Flexstation 3 (Molecular Devices). Receptor activation was initiated following addition of 20 μl of a 10-fold concentrated ligand stock solution, which is also prepared in assay buffer. Fluorescence was continuously monitored for 15 seconds prior to ligand addition and for 105 seconds after ligand addition, for a total of 120 seconds. Maximal receptor activation in relation to solvent control and relative to 31.6 μM menthol is determined. Data from serial dilutions were processed with a KNIME workflow to fit a sigmoidal dose-response curve and to extrapolate EC50 values.

T1 sequence (Q7Z2W7 whole entry): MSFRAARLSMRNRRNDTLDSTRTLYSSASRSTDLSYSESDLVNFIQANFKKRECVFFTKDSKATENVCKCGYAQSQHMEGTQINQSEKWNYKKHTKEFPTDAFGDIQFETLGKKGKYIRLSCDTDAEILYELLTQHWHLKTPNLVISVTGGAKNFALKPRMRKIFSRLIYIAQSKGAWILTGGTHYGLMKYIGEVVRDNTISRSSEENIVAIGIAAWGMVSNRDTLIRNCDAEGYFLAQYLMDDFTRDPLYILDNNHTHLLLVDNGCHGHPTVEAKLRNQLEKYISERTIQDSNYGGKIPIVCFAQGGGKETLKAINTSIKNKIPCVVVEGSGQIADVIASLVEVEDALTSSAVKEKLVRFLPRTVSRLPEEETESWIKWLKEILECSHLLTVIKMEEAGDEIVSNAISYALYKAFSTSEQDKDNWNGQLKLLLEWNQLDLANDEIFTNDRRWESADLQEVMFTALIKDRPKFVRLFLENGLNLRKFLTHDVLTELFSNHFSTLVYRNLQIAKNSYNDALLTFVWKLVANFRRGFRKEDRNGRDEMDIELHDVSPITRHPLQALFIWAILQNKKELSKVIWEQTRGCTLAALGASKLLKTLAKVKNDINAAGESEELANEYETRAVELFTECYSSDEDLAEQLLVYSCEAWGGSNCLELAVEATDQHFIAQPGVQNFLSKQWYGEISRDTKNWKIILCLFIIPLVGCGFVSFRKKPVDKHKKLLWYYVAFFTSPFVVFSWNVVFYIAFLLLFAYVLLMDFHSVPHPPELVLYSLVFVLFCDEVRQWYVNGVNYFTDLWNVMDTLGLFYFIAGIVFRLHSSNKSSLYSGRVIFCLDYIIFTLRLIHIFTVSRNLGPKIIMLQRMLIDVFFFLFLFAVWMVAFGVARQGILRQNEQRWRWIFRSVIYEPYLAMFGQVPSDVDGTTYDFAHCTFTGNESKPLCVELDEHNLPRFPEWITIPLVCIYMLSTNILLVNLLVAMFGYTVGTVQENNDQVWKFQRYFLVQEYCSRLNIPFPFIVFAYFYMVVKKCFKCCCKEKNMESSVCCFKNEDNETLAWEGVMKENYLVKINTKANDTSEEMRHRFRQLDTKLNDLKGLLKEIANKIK

| EC50 | SMILES |
| --- | --- |
| < 50 nM | CCC(C)C(=O)N1CCCCC1c1nc(-c2ccc(C)cc2)cn1C(=O)COCc1ccccc1 (stereo not shown) [1-(2-(1-(2-(benzyloxy)acetyl)-4-(p-tolyl)-1H-imidazol-2-yl)piperidin-1-yl)-2-methylbutan-1-one] |
| 50 to 300 nM | CCCCCCCCCCCC(=O)n1cc(-c2ccc(C)cc2)nc1C1CCCCN1C(=O)C(C)SC (stereo not shown) [1-(2-(1-(2-(methylthio)propanoyl)piperidin-2-yl)-4-(p-tolyl)-1H-imidazol-1-yl)dodecan-1-one] |
| 50 to 300 nM | CCCCCC(=O)n1cc(-c2ccc(C)cc2)nc1C1CCCCN1C(=O)C(C)SC (stereo not shown) [1-(2-(1-(2-(methylthio)propanoyl)piperidin-2-yl)-4-(p-tolyl)-1H-imidazol-1-yl)hexan-1-one] |
| < 50 nM | CCC(C)C(=O)N1CCCCC1c1nc(-c2ccc(C)cc2)cn1C(=O)COC (stereo not shown) [1-(2-(1-(2-methoxyacetyl)-4-(p-tolyl)-1H-imidazol-2-yl)piperidin-1-yl)-2-methylbutan-1-one] |
| 300 to 1000 nM | CCCCCCCCCCCC(=O)n1cc(-c2ccc(C)cc2)nc1C1CCCCN1C(=O)C(C)CC (stereo not shown) [1-(2-(1-(2-methylbutanoyl)piperidin-2-yl)-4-(p-tolyl)-1H-imidazol-1-yl)dodecan-1-one] |
| < 50 nM | CCCCCC(=O)n1cc(-c2ccc(C)cc2)nc1C1CCCCN1C(=O)C(C)CC (stereo not shown) [1-(2-(1-(2-methylbutanoyl)piperidin-2-yl)-4-(p-tolyl)-1H-imidazol-1-yl)hexan-1-one] |
| 300 to 1000 nM | CSC(C)C(=O)N1CCCCC1c1nc(-c2ccc(C)cc2)cn1C(=O)[C@@H]1C[C@H](C)CC[C@H]1C(C)C (stereo partly drawn) [1-(2-(1-((1R,2S,5R)-2-isopropyl-5-methylcyclohexane-1-carbonyl)-4-(p-tolyl)-1H-imidazol-2-yl)piperidin-1-yl)-2-(methylthio)propan-1-one] |
| 1000 to 35000 nM | CCC(C)C(=O)N1CCCCC1c1nc(-c2ccc(C)cc2)cn1C(=O)[C@@H]1C[C@H](C)CC[C@H]1C(C)C (stereo partly drawn) [1-(2-(1-((1R,2S,5R)-2-isopropyl-5-methylcyclohexane-1-carbonyl)-4-(p-tolyl)-1H-imidazol-2-yl)piperidin-1-yl)-2-methylbutan-1-one] |
| 50 to 300 nM | CSC(C)C(=O)N1CCCCC1c1nc(-c2ccc(C)cc2)cn1C(C)=O (stereo not shown) [1-(2-(1-acetyl-4-(p-tolyl)-1 H-imidazol-2-yl)piperidin-1-yl)-2-(methylthio)propan-1-one] |
| < 50 nM | CCC(C)C(=O)N1CCCCC1c1nc(-c2ccc(C)cc2)cn1C(C)=O (stereo not shown) [1-(2-(1-acetyl-4-(p-tolyl)-1H-imidazol-2-yl)piperidin-1-yl)-2-methylbutan-1-one] |
| < 50 nM | CSC(C)C(=O)N1CCCCC1c1nc(-c2ccc(C)cc2)cn1C(=O)c1ccccc1 (stereo not shown) [1-(2-(1-benzoyl-4-(p-tolyl)-1 H-imidazol-2-yl)piperidin-1-yl)-2-(methylthio)propan-1-one] |
| 50 to 300 nM | CCC(C)C(=O)N1CCCCC1c1nc(-c2ccc(C)cc2)cn1C(=O)C(C)C (stereo not shown) [1-(2-(1-isobutyryl-4-(p-tolyl)-1 H-imidazol-2-yl)piperidin-1-yl)-2-methylbutan-1-one] |
| < 50 nM | CSC(C)C(=O)N1CCCCC1c1nc(-c2ccc(C)cc2)cn1C(=O)C(C)C (stereo not shown) [1-(2-(1-isobutyryl-4-(p-tolyl)-1H-imidazol-2-yl)piperidin-1-yl)-2-(methylthio)propan-1-one] |
| 50 to 300 nM | Cc1ccc(-c2cn(C(=O)C(C)C)c(C3CCCCN3C(=O)C(C)C)n2)cc1 (stereo not shown) [1-(2-(1-isobutyryl-4-(p-tolyl)-1H-imidazol-2-yl)piperidin-1-yl)-2-methylpropan-1-one] |
| 1000 to 35000 nM | CCC(=O)N1CCCCC1c1nc(-c2ccc(C)cc2)cn1C(=O)CC (stereo not shown) [1-(2-(1-propionyl-4-(p-tolyl)-1 H-imidazol-2-yl)piperidin-1-yl)propan-1-one] |
| < 50 nM | CSC(C)C(=O)N1CCCCC1c1nc(-c2ccc(C)cc2)cn1C(=O)C(C)SC (stereo not shown) [2-(methylthio)-1-(2-(1-(2-(methylthio)propanoyl)-4-(p-tolyl)-1H-imidazol-2-yl)piperidin-1-yl)propan-1-one] |
| < 50 nM | CC(=O)n1ccc(N(Cc2cccs2)C(=O)COc2ccc(C)cc2)n1 [N-(1-acetyl-1H-pyrazol-3-yl)-N-(thiophen-2-ylmethyl)-2-(p-tolyloxy)acetamide] |
| < 50 nM | Cc1ccc(OCC(=O)N(Cc2cccs2)c2ccn(C(=O)c3ccccc3)n2)cc1 [N-(1-benzoyl-1H-pyrazol-3-yl)-N-(thiophen-2-ylmethyl)-2-(p-tolyloxy)acetamide] |
| < 50 nM | Cc1ccc(OCC(=O)N(Cc2cccs2)c2ccn(C(=O)C(C)C)n2)cc1 [N-(1-isobutyryl-1H-pyrazol-3-yl)-N-(thiophen-2-ylmethyl)-2-(p-tolyloxy)acetamide] |
